These results are taken from article PMC8335727 (Inorganic Chemistry, 2021).

Read-outs that look alike come from different tables or passages of the source.

The nature of this series: pKa by UV–vis titrations in 30% (v/v) DMSO/H2O. As to conditions: 30% (v/v) DMSO/H2O solvent mixture, I = 0.1 M (KCl), T = 25 °C. In kind it is physicochemical. An excerpt:
Proton dissociation constants (pKa) of drug molecules indicate the actual protonation state and the charge at a given pH, and therefore pKa are important parameters that affect the pharmacokinetic properties as well.
On the basis of the spectral changes two well-separated deprotonation processes were observed between pH 2 and 11. The first proton dissociation step taking place at pH < 5 is accompanied by a blue shift, and the λmax is shifted from 362 to 322 nm. This deprotonation step is attributed to the proton on the pyridinium nitrogen (PyH^+). Upon an increase of the pH a new process occurred as evidenced by a new band in the range of 350–450 nm (Figure 7b) and an isosbestic point at 350 nm, namely, the deprotonation of the hydrazinic nitrogen. In the strongly basic pH range (pH > 11.2) new broad bands appear at 400–600 nm (Figure 7b) with irreversible spectral changes most likely due to an oxidation of the TSC by the air oxygen.
Therefore, only two pKa values could be determined (Table 1) based on the deconvolution of the UV–vis spectra recorded at pH < 11.2 for HL^1 (molar absorbance spectra are seen in Figure S8a) as the oxidation hindered the accurate determination of the pKa for the aromatic OH group. Two pKa values were computed for HL^2 from the UV–vis titration data (Figure S9) as well; however, only one pKa was obtained in the case of HL^3 (Table 1), namely, that for the deprotonation of the PyH^+, since the proton dissociation of the hydrazinic nitrogen and the oxidation of the TSC were partly overlapped. On the basis of the determined pKa values, it can be concluded that the presence of the electron-donating methyl group in HL^2 results in a significant increase of both pKa values when compared to that of HL^1. A similar behavior was reported for the analogous 2-formylpyridine and 2-acetylpyridine TSC in our previous work.[67] […] All proligands are air-sensitive in the strongly basic pH range (pH > 11).
The metal complexes often undergo transformation processes upon dissolution, such as protonation, deprotonation, or dissociation to a metal-free ligand and metal ion depending on the pH, their concentration, and the solution speciation. The knowledge of the actual chemical form of the biologically active metal complexes in solution close to physiologically relevant conditions is quite important to elucidate the mechanism of action. Therefore, the solution stability of the copper(II) complexes (Cu(HL^1)Cl2, [Cu(L^2)Cl], and Cu(HL^3)Cl2) was studied by UV–vis spectrophotometry. […] At lower pH this type of complex is protonated, and thus the neutral ligand is bound via (Npyridine,N,S) donor atoms, while a mixed hydroxido complex with the (Npyridine,N,S^–)(OH) coordination pattern is formed in the basic pH range. On the basis of the close structural similarities between HL^1–HL^3 and the listed TSCs with a simpler scaffold, the formation of the same type of complexes is feasible. UV–vis titrations were performed with the complexes in a 30% (v/v) DMSO/H2O solvent mixture, and representative spectra are shown for Cu(HL^1)Cl2 in Figure 8. The spectra remain intact in a broad pH range (2.7–7.6), and an absorption band is observed with λmax at 406 nm being typical for a S → Cu charge transfer. This finding indicates the dominant presence of only one kind of complex, which is most probably the species with the (Npyridine,N,S^–) tridentate coordination mode. By decreasing the pH the λmax is hypsochromically shifted to 322 nm. […]

Take `Cc1cc(NC(=S)NN=Cc2ccccn2)cc(C)c1O` [HL^1, 2-Formylpyridine 4-(4-hydroxy-3,5-dimethylphenyl)thiosemicarbazone]: the pKa was 10.55 ± 0.01 (read-out: pKa (NNH)) and 3.01 ± 0.01 (read-out: pKa (PyH^+)).
As to `CC(=NNC(=S)Nc1cc(C)c(O)c(C)c1)c1ccccn1` [HL^2, 2-Acetylpyridine 4-(4-hydroxy-3,5-dimethylphenyl)thiosemicarbazone], the pKa by setting is: (read-out: pKa (NNH)) 11.08 ± 0.02; (read-out: pKa (PyH^+)) 3.59 ± 0.02.
Regarding `Cc1cc(NC(=S)NN=Cc2ncccc2N)cc(C)c1O` [HL^3, 3-Amino-2-formylpyridine 4-(4-hydroxy-3,5-dimethylphenyl)thiosemicarbazone], the pKa (read-out: pKa (PyH^+)) was 3.95 ± 0.04.
